This assay addresses T1, human TLR7 (Homo sapiens, UniProt Q9NYK1).
T1 construct: host or cells: HEK-Blue TLR7 cells (engineered human embryonic kidney cells)
T1 sequence (Q9NYK1 27-1049): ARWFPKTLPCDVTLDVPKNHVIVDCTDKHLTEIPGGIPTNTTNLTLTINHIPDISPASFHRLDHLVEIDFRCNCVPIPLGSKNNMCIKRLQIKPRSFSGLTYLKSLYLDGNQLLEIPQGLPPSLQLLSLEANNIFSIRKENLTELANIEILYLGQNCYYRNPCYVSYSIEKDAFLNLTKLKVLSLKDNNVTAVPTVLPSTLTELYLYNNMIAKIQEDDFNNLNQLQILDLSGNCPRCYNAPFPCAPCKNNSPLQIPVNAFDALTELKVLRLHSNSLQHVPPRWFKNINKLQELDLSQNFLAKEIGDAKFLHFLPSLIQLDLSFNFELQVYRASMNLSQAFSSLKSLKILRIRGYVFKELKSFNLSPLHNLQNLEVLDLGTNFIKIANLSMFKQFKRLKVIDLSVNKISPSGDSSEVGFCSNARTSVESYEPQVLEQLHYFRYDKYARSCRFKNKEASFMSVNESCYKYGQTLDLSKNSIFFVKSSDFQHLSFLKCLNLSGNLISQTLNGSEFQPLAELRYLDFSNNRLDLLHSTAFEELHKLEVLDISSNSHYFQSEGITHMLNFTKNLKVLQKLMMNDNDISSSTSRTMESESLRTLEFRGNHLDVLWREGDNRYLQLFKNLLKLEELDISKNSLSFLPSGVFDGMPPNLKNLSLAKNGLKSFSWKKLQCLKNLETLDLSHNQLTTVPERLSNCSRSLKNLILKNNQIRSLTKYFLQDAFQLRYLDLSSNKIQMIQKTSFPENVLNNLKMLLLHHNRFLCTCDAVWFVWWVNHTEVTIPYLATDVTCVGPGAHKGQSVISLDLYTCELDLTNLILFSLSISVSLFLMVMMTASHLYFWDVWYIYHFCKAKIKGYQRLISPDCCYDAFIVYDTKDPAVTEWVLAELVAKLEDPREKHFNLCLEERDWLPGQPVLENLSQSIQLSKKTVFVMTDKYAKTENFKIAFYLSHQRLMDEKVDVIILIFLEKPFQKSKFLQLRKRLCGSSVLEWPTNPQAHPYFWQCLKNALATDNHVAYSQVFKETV
In words: Human TLR7 agonist activity assay (hTLR7 reporter, HEK-Blue TLR7 cells, SEAP). In kind it is cell-based. Conditions: HEK-Blue TLR7 cells with SEAP reporter, 18 h treatment; average where assay performed multiple times. The method, then:
This procedure describes a method for assaying human TLR7 (hTLR7) agonist activity of the compounds disclosed in this specification.
HEK-Blue™ TLR7 cells were added to each well of a 384-well tissue-culture plate (15,000 cells per well) and incubated 16-18 h at 37° C., 5% CO2. Compounds (100 nl) were dispensed into wells containing the HEK-Blue™ TLR cells and the treated cells were incubated at 37° C., 5% CO2. After 18 h treatment ten microliters of freshly-prepared Quanti-Blue™ reagent (Invivogen) was added to each well, incubated for 30 min (37° C., 5% CO2) and SEAP levels measured using an Envision plate reader (OD=620 nm). The half maximal effective concentration values (EC50; compound concentration which induced a response halfway between the assay baseline and maximum) were calculated.

For `CCC[C@@H](CCO)Nc1nc(N)nc2cnn(Cc3ccc(CN4C[C@@H]5C[C@H]4CN5C(C)=O)cc3OC)c12` [Compound 101, 1-[(1S,4S)-5-({4-[(5-amino-7-{[(3S)-1-hydroxyhexan-3-yl]amino}-1H-pyrazolo[4,3-d]pyrimidin-1-yl)methyl]-3-methoxypheyl}-methyl)-2,5-diazabicyclo[2.2.1]-heptan-2-yl]ethan-1-one], it took 0.0288 µM to reach a half-maximal effect (EC50).

Regarding `CCCCNc1nc(N)nc2cnn(Cc3ccc(CN4C5CNCC4C5)cc3OC)c12` [Compound 102, N7-butyl-1-{[4-({3,6-diazabicyclo-[3.1.1]heptan-6-yl}methyl)-2-methoxyphenyl]methyl}-1H-pyrazolo-[4,3-d]pyrimidine-5,7-diamine], the EC50 – broadly, the concentration needed to bring the measured effect to its halfway point – is 0.0896 µM.

On to `CCCCNc1nc(N)nc2cnn(Cc3ccc(CN4C[C@H]5CN(C)C[C@H]5C4)cc3OC)c12` [Compound 103, 1-[(4-{[(3aR,6aS)-5-methyl-octa-hydropyrrolo[3,4-c]pyrrol-2-yl]methyl}-2-methoxyphenyl)methyl]-N7-butyl-1H-pyrazolo[4,3-d]pyrimidine-5,7-diamine], for which the midpoint of the response, the EC50, lay at 0.0278 µM.

Take `CCCCNc1nc(N)nc2cnn(Cc3ccc(CN4C[C@H]5CCS(=O)(=O)[C@H]5C4)cc3OC)c12` [Compound 104, (3aR,6aR)-5-[(4-{[5-amino-7-(butyl-amino)-1H-pyrazolo[4,3-d]pyrimidin-1-yl]methyl}-3-methoxyphenyl)methyl]-hexahydro-2H-1λ6-thieno[2,3-c] pyrrole-1,1-dione]: it took 0.197 µM to reach a half-maximal effect (EC50).

Compound `CCC[C@@H](CCO)Nc1nc(N)nc2cnn(Cc3ccc(CNC4[C@H]5COC[C@@H]45)cc3OC)c12` (stereo partly drawn) [Compound 107, (3S)-3-[(5-amino-1-{[2-methoxy-4-({[(1R,5S,6S)-3-oxabicyclo[3.1.0]-hexan-6-yl]amino}methyl)phenyl]-methyl}-1H-pyrazolo[4,3-d]pyrimidin-7-yl)amino]hexan-1-ol] displayed an EC50 of 0.0053 µM.

In turn, `CCC[C@@H](CCO)Nc1nc(N)nc2cnn(Cc3ccc(CN[C@H]4C[C@H]5COC[C@H]54)cc3OC)c12` [Compound 108, (3S)-3-[(5-amino-1-{[2-methoxy-4-({[(1R,5R,6S)-3-oxabicyclo-[3.2.0]heptan-6-yl]amino}methyl)phenyl]methyl}-1H-pyrazolo-[4,3-d]pyrimidin-7-yl)amino]hexan-1-ol] had an EC50 of 0.0049 µM.

`CCC[C@@H](CCO)Nc1nc(N)nc2cnn(Cc3ccc(CN4C[C@@H]5OCC[C@@H]54)cc3OC)c12` [Compound 109, (3S)-3-({5-amino-1-[(2-methoxy-4-{[(1S,5S)-2-oxa-6-azabicyclo-[3.2.0]heptan-6-yl]methyl}phenyl)-methyl]-1H-pyrazolo[4,3-d]pyrimidin-7-yl}amino)hexan-1-ol] registered an EC50 of 0.0022 µM. Against the preceding compound, the EC50 is about 2.2-fold lower.

`CCC[C@@H](CCO)Nc1nc(N)nc2cnn(Cc3ccc(C(=O)N4C[C@H]5CN(C)C[C@H]5C4)cc3OC(F)F)c12` [Compound 124, (3S)-3-{[1-({4-[(3aR,6aS)-5-methyl-octahydropyrrolo[3,4-c]pyrrole-2-carbonyl]-2-(difluoromethoxy)-phenyl}methyl)-5-amino-1H-pyra-zolo[4,3-d]pyrimidin-7-yl]amino}-hexan-1-ol] came in with an EC50 of 0.082 µM.

Turning to `CCC[C@@H](CCO)Nc1nc(N)nc2cnn(Cc3ccc(C(=O)N4C[C@H]5C[C@@H]4CN5C)cc3OC(F)F)c12` [Compound 125, (3S)-3-[(5-amino-1-{[2-(difluoro-methoxy)-4-[(1R,4R)-5-methyl-2,5-diazabicyclo[2.2.1]heptane-2-carbonyl]phenyl]methyl}-1H-pyrazolo[4,3-d]pyrimidin-7-yl)amino]hexan-1-ol], the EC50 stood at 0.301 µM.

`COc1cc(CNC23CC(C2)C3)ccc1Cn1ncc2nc(N)nc(NCc3cc(C)on3)c21` [Compound 126, 1-({4-[({bicyclo[1.1.1]pentan-1-yl}amino)methyl]-2-methoxy-phenyl}methyl)-N7-[(5-methyl-1,2-oxazol-3-yl)methyl]-1H-pyra-zolo[4,3-d]pyrimidine-5,7-diamine] registered an EC50 of 0.287 µM.

Values taken from patent publication US20230041738A1, “1H-PYRAZOLO[4,3-d]PYRIMIDINE COMPOUNDS AS TOLL-LIKE RECEPTOR 7 (TLR7) AGONISTS” (BRISTOL-MYERS SQUIBB COMPANY, priority 2020, published 2023).
